Data from patent US12606568B2, “SMARCA degraders and uses thereof” (Kymera Therapeutics, Inc., priority 2020, dated 2026).

Columns and labels:
Type in all cases: cell-based
SMARCA4 = target: T1, SMARCA4 (Homo sapiens, UniProt P51532); assay: SMARCA4 Western blot MV4-11 degradation; details: for Dmax: MV4-11, MV4-11 cells, read-out: SMARCA4 MSD MV411 degradation 24 h: average Dmax %; for Dmax / DC50: 24 h; for DC50: read-out: SMARCA4 MSD MV411 degradation 24 h: Mean external-Abs DC50
T1 construct: SMARCA2 and SMARCA4 protein degradation in MV4-11 cells; endogenous in cells; host or cells: MV4-11

SMARCA2 [1] = target: T2, SMARCA2 (Homo sapiens, UniProt P51531); assay: MSD SMARCA2 degradation in A549 cell line; set-up: endogenous in cells; details: for Dmax: A549, A549 cells; for Dmax / DC50: 24 h; for DC50: read-out: SMARCA2 MSD A549 degradation 24 h: Average external-Abs DC50
Method in brief: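 A549 cells treated 24 h with compound, 3-fold series 1000 nM down to 0.152 nM plus DMSO. RIPA lysates captured on MSD plates, probed with rabbit anti-SMARCA2/BRM (1 µg/ml) then SULFO-TAG anti-rabbit, electrochemiluminescence read. DC50 and 24 h Dmax reported as letter bins.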

SMARCA2 [2] = target: T2, SMARCA2; assay: SMARCA2 Western blot MV4-11 degradation; set-up: SMARCA2 and SMARCA4 protein degradation in MV4-11 cells; endogenous in cells; host or cells: MV4-11; details: for Dmax: MV4-11, MV4-11 cells, read-out: SMARCA2 MSD MV411 degradation 24 h: average Dmax %; for Dmax / DC50: 24 h; for DC50: read-out: SMARCA2 MSD MV411 degradation 24 h: Mean external-Abs DC50

T1 sequence (P51532 whole entry): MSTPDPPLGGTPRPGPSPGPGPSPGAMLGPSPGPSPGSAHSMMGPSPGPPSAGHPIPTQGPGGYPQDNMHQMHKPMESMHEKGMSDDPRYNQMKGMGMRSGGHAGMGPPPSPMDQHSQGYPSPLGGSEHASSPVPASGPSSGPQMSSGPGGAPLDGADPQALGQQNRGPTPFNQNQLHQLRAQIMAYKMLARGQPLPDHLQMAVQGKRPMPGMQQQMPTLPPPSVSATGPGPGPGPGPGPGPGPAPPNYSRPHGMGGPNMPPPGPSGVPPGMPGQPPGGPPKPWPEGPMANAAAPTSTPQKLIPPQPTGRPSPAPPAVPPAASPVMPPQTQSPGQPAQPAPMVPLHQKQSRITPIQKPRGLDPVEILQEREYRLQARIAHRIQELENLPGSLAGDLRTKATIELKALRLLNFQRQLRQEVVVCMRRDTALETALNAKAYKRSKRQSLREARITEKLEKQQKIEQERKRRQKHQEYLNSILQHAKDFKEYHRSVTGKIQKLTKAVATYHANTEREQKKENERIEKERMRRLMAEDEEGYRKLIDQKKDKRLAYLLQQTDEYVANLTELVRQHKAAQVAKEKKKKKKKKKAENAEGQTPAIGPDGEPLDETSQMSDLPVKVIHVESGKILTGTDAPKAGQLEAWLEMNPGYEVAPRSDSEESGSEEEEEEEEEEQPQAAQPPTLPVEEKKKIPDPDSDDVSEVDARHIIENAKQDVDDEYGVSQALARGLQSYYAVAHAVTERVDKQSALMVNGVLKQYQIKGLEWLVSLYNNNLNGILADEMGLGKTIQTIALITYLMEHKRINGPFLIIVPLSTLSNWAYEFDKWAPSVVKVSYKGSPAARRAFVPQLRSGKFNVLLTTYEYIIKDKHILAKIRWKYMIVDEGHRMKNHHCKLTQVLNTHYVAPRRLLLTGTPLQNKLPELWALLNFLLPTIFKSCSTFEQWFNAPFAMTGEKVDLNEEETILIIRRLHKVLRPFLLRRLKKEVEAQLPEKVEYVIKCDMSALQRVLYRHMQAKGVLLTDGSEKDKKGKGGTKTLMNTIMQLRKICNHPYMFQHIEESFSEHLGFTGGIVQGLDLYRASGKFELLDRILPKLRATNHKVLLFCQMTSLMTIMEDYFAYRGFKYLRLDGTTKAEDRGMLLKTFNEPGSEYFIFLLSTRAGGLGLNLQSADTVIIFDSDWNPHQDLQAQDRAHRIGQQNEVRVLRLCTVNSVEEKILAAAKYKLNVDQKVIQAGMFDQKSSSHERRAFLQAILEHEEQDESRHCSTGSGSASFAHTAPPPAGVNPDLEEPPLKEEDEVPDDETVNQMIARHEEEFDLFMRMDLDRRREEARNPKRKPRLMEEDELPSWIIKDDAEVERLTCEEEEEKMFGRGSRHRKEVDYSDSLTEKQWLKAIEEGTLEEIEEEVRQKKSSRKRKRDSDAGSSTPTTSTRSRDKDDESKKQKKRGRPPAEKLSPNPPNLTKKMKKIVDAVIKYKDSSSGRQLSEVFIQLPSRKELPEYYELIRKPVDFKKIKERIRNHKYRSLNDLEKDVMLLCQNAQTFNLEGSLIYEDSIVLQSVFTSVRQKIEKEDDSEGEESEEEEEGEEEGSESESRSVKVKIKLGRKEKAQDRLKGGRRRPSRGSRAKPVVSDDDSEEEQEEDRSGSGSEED
T2 sequence (P51531 whole entry): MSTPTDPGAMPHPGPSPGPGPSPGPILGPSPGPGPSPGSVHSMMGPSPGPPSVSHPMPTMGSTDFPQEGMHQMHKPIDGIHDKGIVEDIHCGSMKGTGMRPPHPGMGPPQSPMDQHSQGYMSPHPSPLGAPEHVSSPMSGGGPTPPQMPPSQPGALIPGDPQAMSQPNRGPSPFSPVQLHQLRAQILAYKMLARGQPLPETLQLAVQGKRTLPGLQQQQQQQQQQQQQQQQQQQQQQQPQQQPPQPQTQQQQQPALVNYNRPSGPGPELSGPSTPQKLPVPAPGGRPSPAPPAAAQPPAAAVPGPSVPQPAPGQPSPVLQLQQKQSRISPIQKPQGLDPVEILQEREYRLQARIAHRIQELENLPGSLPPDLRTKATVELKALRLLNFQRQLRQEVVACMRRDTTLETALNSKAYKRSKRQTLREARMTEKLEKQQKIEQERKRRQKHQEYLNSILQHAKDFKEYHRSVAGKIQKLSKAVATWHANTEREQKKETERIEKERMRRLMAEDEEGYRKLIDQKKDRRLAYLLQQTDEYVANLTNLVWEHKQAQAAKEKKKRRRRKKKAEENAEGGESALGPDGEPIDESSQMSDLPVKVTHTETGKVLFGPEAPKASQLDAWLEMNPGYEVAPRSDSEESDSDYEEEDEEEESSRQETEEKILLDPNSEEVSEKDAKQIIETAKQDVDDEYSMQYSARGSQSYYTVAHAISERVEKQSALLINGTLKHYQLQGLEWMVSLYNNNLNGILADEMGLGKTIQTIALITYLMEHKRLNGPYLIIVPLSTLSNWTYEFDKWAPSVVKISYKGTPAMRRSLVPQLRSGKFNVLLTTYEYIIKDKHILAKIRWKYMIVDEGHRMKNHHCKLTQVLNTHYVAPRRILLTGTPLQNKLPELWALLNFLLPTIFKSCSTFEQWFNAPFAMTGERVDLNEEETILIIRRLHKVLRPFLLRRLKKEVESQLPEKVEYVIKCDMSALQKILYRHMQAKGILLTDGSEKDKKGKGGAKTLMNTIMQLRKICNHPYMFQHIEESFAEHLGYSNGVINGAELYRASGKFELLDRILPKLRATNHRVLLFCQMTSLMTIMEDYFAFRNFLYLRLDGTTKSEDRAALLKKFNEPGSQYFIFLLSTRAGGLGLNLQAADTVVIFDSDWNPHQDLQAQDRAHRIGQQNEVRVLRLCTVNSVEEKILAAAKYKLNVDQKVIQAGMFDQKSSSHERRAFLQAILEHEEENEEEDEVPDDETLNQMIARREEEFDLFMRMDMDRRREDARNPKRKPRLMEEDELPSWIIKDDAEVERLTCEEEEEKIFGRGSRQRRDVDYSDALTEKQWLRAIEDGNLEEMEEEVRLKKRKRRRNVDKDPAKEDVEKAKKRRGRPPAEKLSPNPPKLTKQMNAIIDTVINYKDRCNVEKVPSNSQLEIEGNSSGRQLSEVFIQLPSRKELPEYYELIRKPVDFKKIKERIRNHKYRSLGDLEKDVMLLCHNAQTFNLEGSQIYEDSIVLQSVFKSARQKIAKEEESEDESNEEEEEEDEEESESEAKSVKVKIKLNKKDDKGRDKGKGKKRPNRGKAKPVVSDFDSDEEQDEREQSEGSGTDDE

SMILES | Dmax (SMARCA4) [%] | DC50 (SMARCA4; MV4-11 cells) [nM] | Dmax (SMARCA2 [1]) [%] | DC50 (SMARCA2 [1]; A549 cells) [nM] | Dmax (SMARCA2 [2]) [%] | DC50 (SMARCA2 [2]; MV4-11 cells) [nM] | SMARCA4 MSD MV411 degradation 24 h: average Dmax % (SMARCA4; MV4-11 cells) | SMARCA2 MSD A549 degradation 24 h: Average Dmax % (SMARCA2 [1]; A549 cells) | SMARCA2 MSD MV411 degradation 24 h: average Dmax % (SMARCA2 [2]; MV4-11 cells)
Cc1ncsc1-c1ccc(CNC(=O)[C@@H]2C[C@@H](O)CN2C(=O)[C@@H](NC(=O)C2CC3(C2)CC(N2CCC(COc4ccc(N5C6CCC5CN(c5cc(-c7ccccc7O)nnc5N)C6)cn4)CC2)C3)C(C)(C)C)cc1 (stereo partly drawn) [I-41, (2S,4R)-1-((2S)-2-(6-(4-(((5-(3-(3-amino-6-(2-hydroxyphenyl)pyridazin-4-yl)-3,8-diazabi-cyclo[3.2.1]octan-8-yl)pyridin-2-yl)oxy)methyl)piperidin-1-yl)spiro[3.3]heptane-2-carbox-amido)-3,3-dimethylbutanoyl)-4-hydroxy-N-(4-(4-methylthiazol-5-yl)benzyl)pyrrolidine-2-carboxamide] | > 90 | > 1000 | 50 to 70 | > 1000 | < 50 | > 1000 |  |  | 
Cc1ncsc1-c1ccc(CNC(=O)[C@@H]2C[C@H](O)CN2C(=O)[C@@H](NC(=O)[C@H]2CC3(C2)C[C@H](N2CCC(c4cnc(N5C6CCC5CN(c5cc(-c7ccccc7O)nnc5N)C6)nc4)CC2)C3)C(C)(C)C)cc1 (stereo partly drawn) [I-79, (2S,4S)-1-((2S)-2-(6-(4-(2-(3-(3-amino-6-(2-hydroxyphenyl)pyridazin-4-yl)-3,8-diazabicyclo[3.2.1]octan-8-yl)pyrimidin-5-yl)piperidin-1-yl)spiro[3.3]heptane-2-carboxamido)-3,3-dimethylbutanoyl)-4-hydroxy-N-(4-(4-methylthiazol-5-yl)benzyl)pyrrolidine-2-carboxamide] | < 50 | > 1000 | < 50 | > 1000 | < 50 | > 1000 |  |  | 
Cc1n[nH]c(C)c1-c1ccc(CNC(=O)[C@@H]2C[C@@H](O)CN2C(=O)[C@@H](NC(=O)[C@H]2CC3(C2)C[C@H](N2CCC(c4cnc(N5C6CCC5CN(c5cc(-c7ccccc7O)nnc5N)C6)nc4)CC2)C3)C(C)(C)C)cc1 (stereo partly drawn) [I-31, (2S,4R)-1-((2S)-2-(6-(4-(2-(3-(3-amino-6-(2-hydroxyphenyl)pyridazin-4-yl)-3,8-diazabicyclo[3.2.1]octan-8-yl)pyrimidin-5-yl)piperidin-1-yl)spiro[3.3]heptane-2-carboxamido)-3,3-dimethylbutanoyl)-N-(4-(3,5-dimethyl-1H-pyrazol-4-yl)benzyl)-4-hydroxypyrrolidine-2-carboxamide] | < 50 | > 1000 | < 50 |  | 50 to 70 | < 100 |  |  | 
Cc1ncsc1-c1ccc(CNC(=O)[C@@H]2C[C@@H](O)CN2C(=O)[C@@H](NC(=O)[C@H]2CC3(C2)C[C@H](N2CCN(c4cnc(N5C6CCC5CN(c5cc(-c7ccccc7O)nnc5N)C6)nc4)CC2)C3)C(C)(C)C)cc1 (single isomer, unassigned) [I-8] | < 50 | > 1000 | 70 to 90 | < 100 | 70 to 90 | < 100 |  |  | 
Cc1ncsc1-c1ccc(C2(NC(=O)[C@@H]3C[C@@H](O)CN3C(=O)[C@@H](NC(=O)[C@H]3CC4(C3)C[C@H](N3CCC(c5cnc(N6C7CCC6CN(c6cc(-c8ccccc8O)nnc6N)C7)nc5)CC3)C4)C(C)(C)C)CC2)cc1 (single isomer, unassigned) [I-3] | 70 to 90 | < 100 | > 90 | < 100 | > 90 | < 100 |  |  | 
Cc1ncsc1-c1ccc(CNC(=O)[C@@H]2C[C@@H](O)CN2C(=O)[C@@H](NC(=O)N2CCC(N3CCC(c4cnc(N5C6CCC5CN(c5cc(-c7ccccc7O)nnc5N)C6)nc4)CC3)CC2)C(C)(C)C)cc1 [I-59, 4-(2-(3-(3-amino-6-(2-hydroxyphenyl)pyridazin-4-yl)-3,8-diazabicyclo[3.2.1]octan-8-yl)pyrimidin-5-yl)-N—((S)-1-((2S,4R)-4-hydroxy-2-((4-(4-methylthiazol-5-yl)benzyl)carbamoyl)pyrrolidin-1-yl)-3,3-dimethyl-1-oxobutan-2-yl)-[1,4′-bipiperidine]-1′-carboxamide] | < 50 | > 1000 | < 50 | > 1000 | < 50 | 501 to 1000 |  |  | 
Cc1ncsc1-c1ccc(CNC(=O)[C@@H]2C[C@@H](O)CN2C(=O)[C@@H](NC(=O)C2CC3(C2)CC(N2CCC(Oc4cc(N5C6CCC5CN(c5cc(-c7ccccc7O)nnc5N)C6)ccn4)CC2)C3)C(C)(C)C)cc1 (stereo partly drawn) [I-38, (2S,4R)-1-((2S)-2-(6-(4-((4-(3-(3-amino-6-(2-hydroxyphenyl)pyridazin-4-yl)-3,8-diazabicyclo[3.2.1]octan-8-yl)pyridin-2-yl)oxy)piperidin-1-yl)spiro[3.3]heptane-2-carboxamido)-3,3-dimethylbutanoyl)-4-hydroxy-N-(4-(4-methylthiazol-5-yl)benzyl)pyrrolidine-2-carboxamide] | > 90 | > 1000 | 70 to 90 | > 1000 | < 50 | > 1000 |  |  | 
Cc1ncsc1-c1ccc(CNC(=O)[C@@H]2C[C@@H](O)CN2C(=O)[C@@H](NC(=O)[C@H]2CC3(C2)C[C@H](N2CCC(c4ccc(N5C6CCC5CN(c5cc(-c7ccccc7O)nnc5N)C6)cc4)CC2)C3)C(C)(C)C)cn1 (stereo partly drawn) [I-27, (2S,4R)-1-((2S)-2-(6-(4-(4-(3-(3-amino-6-(2-hydroxyphenyl)pyridazin-4-yl)-3,8-diazabicyclo[3.2.1]octan-8-yl)phenyl)piperidin-1-yl)spiro[3.3]heptane-2-carboxamido)-3,3-dimethylbutanoyl)-4-hydroxy-N-((6-(4-methylthiazol-5-yl)pyridin-3-yl)methyl)pyrrolidine-2-carboxamide] | < 50 | > 1000 | < 50 | > 1000 | < 50 | 100 to 500 |  |  | 
Cc1ncsc1-c1ccc(CNC(=O)[C@@H]2C[C@@H](O)CN2C(=O)[C@@H](NC(=O)[C@H]2CC3(C2)C[C@H](N2CCN(c4cnc(N5C6CCC5CN(c5cc(-c7ccccc7O)nnc5N)C6)nc4)CC2)C3)C(C)(C)C)cc1 (single isomer, unassigned) [I-9] |  | > 1000 |  | 100 to 500 |  | < 100 | D (D (<50% degradation)) | B (B (>70-90% o degradation)) | B (B (>70-90% degradation))
Cc1ncsc1-c1ccc(CNC(=O)[C@@H]2C[C@@H](O)CN2C(=O)C(c2cc(OCCN3CCC(c4cnc(N5C6CCC5CN(c5cc(-c7ccccc7O)nnc5N)C6)nc4)CC3)no2)C(C)C)cc1 (stereo partly drawn) [I-50, (2S,4R)-1-(2-(3-(2-(4-(2-(3-(3-amino-6-(2-hydroxyphenyl)pyridazin-4-yl)-3,8-diazabicyclo[3.2.1]octan-8-yl)pyrimidin-5-yl)piperidin-1-yl)ethoxy)isoxazol-5-yl)-3-methylbutanoyl)-4-hydroxy-N-(4-(4-methylthiazol-5-yl)benzyl)pyrrolidine-2-carboxamide] | > 90 | < 100 | > 90 | < 100 | > 90 | < 100 |  |  | 
Cc1ncsc1-c1ccc(CNC(=O)[C@@H]2C[C@@H](O)CN2C(=O)[C@H](c2cc(OCCCN3CCC(c4cnc(N5C6CCC5CN(c5cc(-c7ccccc7O)nnc5N)C6)nc4)CC3)no2)C(C)C)cc1 [I-52, (2S,4R)-1-((2S)-2-(3-(3-(4-(2-(3-(3-amino-6-(2-hydroxyphenyl)pyridazin-4-yl)-3,8-diazabicyclo[3.2.1]octan-8-yl)pyrimidin-5-yl)piperidin-1-yl)propoxy)isoxazol-5-yl)-3-methylbutanoyl)-4-hydroxy-N-(4-(4-methylthiazol-5-yl)benzyl)pyrrolidine-2-carboxamide] | > 90 | < 100 | > 90 | < 100 | > 90 | < 100 |  |  | 
Cc1ncsc1-c1ccc(CNC(=O)[C@@H]2C[C@@H](O)CN2C(=O)[C@@H](NC(=O)N2CC3(CC(N4CCC(c5cnc(N6C7CCC6CN(c6cc(-c8ccccc8O)nnc6N)C7)nc5)CC4)C3)C2)C(C)(C)C)cc1 [I-58, 6-(4-(2-(3-(3-amino-6-(2-hydroxyphenyl)pyridazin-4-yl)-3,8-diazabicyclo[3.2.1]octan-8-yl)pyrimidin-5-yl)piperidin-1-yl)-N—((S)-1-((2S,4R)-4-hydroxy-2-((4-(4-methylthiazol-5-yl)benzyl)carbamoyl)pyrrolidin-1-yl)-3,3-dimethyl-1-oxobutan-2-yl)-2-azaspiro[3.3]heptane-2-carboxamide] | 50 to 70 | 100 to 500 | > 90 | < 100 | > 90 | < 100 |  |  | 
